Results published in article PMC9691607 (Journal of medicinal chemistry, 2022).
Each block holds one compound with its values, some of them ahead of it.

Tests used:
HDAC4 = HDAC4 (Homo sapiens, UniProt P56524); assay: HDAC4 inhibition assay; assay type: biochemical
human HDAC6 = target: T1, human HDAC6 (Homo sapiens, UniProt Q9UBN7); assay: HDAC6 inhibition assay; assay type: biochemical; settings: selectivity index HDAC1/6
T1 sequence (Q9UBN7 1-1215): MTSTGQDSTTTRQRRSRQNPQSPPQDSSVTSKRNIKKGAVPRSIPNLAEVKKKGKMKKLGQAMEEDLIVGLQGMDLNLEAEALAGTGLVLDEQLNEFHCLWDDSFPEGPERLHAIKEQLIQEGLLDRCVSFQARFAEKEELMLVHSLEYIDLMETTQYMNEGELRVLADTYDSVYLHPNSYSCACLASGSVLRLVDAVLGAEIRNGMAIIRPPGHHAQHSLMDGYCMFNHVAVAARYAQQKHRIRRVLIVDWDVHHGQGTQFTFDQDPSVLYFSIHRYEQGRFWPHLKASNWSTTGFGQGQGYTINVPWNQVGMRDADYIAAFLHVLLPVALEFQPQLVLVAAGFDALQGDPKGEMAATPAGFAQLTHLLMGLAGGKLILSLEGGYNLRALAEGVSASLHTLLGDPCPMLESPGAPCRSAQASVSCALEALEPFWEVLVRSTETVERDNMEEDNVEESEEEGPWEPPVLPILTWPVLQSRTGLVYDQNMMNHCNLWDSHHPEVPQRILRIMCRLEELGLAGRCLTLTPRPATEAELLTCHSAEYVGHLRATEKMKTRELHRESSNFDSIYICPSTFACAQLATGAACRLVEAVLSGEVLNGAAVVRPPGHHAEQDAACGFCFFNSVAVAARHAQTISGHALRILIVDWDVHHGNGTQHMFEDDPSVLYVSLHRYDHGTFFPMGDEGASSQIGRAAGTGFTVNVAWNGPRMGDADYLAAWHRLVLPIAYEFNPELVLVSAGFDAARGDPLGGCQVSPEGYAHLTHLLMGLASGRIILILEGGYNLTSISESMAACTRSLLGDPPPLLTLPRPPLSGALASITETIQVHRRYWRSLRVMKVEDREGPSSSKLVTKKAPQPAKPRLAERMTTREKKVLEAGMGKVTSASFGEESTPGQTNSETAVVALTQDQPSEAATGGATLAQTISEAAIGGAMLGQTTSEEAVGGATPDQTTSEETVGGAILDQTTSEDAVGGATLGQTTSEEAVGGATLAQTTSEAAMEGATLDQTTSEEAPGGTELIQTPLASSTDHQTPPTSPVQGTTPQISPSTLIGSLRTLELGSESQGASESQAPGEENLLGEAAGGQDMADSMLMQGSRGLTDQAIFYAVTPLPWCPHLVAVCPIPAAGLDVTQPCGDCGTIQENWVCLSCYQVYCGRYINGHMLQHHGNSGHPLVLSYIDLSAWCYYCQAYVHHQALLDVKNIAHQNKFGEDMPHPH

HDAC1 = settings: read-out: HDAC1 IC50; Sandrone et al., different substrates; ref [47]; cited from earlier work
HDAC6 = settings: ref [47], cited from earlier work; for IC50: read-out: HDAC6 IC50, Sandrone et al., different substrates; for SI (IC50 (HDAC1)/IC50 (HDAC6)): selectivity index HDAC1/6, Sandrone et al.
HL60 cells [1] = assay: Immunoblotting of acetyl-α-tubulin and acetyl-histone H3; assay type: cell-based; settings: 24 h; for acetylation of histone 3 (Ac-H3) / acetylation of α-tubulin: IC12.5-IC75 concentrations (ricolinostat at its IC50)
HL60 = assay: Combinatorial drug screening with decitabine, HL60; assay type: cell-based; settings: combination with decitabine, HL60, 72 h co-treatment
MOLM13 = assay: Combinatorial drug screening with decitabine, MOLM13; assay type: cell-based; settings: combination with decitabine, MOLM13, 72 h co-treatment
HAL01 = assay: Combinatorial drug screening with decitabine, HAL01; assay type: cell-based; settings: combination with decitabine, HAL01, 72 h co-treatment
Jurkat = assay: Combinatorial drug screening with decitabine, Jurkat; assay type: cell-based; settings: combination with decitabine, 72 h co-treatment
HL60 cells [2] = assay: Annexin V / PI apoptosis assay; assay type: cell-based; settings: 1 μM or 5 μM, 48 h, annexin V and propidium iodide, flow cytometry
leukemia cell lines = assay type: cell-based; settings: broad range of leukemia cell lines from therapy refractory subgroups; two healthy human fibroblast controls; values in Supplementary Table S1

Chain of HDAC4 (P56524 627-1084 limits assumed): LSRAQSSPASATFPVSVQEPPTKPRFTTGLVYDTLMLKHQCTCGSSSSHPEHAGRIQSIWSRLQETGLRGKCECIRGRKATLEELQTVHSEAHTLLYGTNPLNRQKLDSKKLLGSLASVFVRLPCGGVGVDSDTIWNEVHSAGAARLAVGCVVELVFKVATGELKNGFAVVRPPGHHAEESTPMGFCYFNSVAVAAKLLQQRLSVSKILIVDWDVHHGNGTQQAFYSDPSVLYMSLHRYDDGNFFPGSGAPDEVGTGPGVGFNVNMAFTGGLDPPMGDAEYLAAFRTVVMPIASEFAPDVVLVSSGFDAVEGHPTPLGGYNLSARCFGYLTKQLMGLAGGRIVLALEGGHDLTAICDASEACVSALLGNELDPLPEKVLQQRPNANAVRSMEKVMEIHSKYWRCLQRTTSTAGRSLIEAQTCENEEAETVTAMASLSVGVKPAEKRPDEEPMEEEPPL

IC50 (HDAC4): 2.67 µM
Structure (SMILES): CN(C)c1ccc(C(=O)N(CC(=O)NCc2ccccc2)Cc2ccc(C(=O)NO)cc2)cc1 [DDK137]

SI (IC50 (HDAC1)/IC50 (HDAC6)) (human HDAC6): 6–24
Structure (SMILES): Cc1cc(C)cc(C(=O)N(CC(=O)NCc2ccccc2)Cc2ccc(C(=O)NO)cc2F)c1 [Compound 10g, 4-({N-[(Benzylcarbamoyl)methyl]-1-(3,5-dimethylphenyl)formamido}methyl)-3-fluoro-N-hydroxybenzamide]

Structure (SMILES): O=C(NO)c1ccccc1 [N-hydroxybenzamide]
IC50 (HDAC1): 25.4 µM
IC50 (HDAC6): 1.34 µM
SI (IC50 (HDAC1)/IC50 (HDAC6)) (HDAC6): 19

Structure (SMILES): O=C(CCCCCCNC(=O)c1cnc(N(c2ccccc2)c2ccccc2)nc1)NO [Ricolinostat, ricolinostat, reference compound]
acetylation of histone 3 (Ac-H3) (HL60 cells [1]): lower Ac-H3 levels than observed for 10h
acetylation of α-tubulin (HL60 cells [1]): prominent acetylation of α-tubulin

Structure (SMILES): O=C(NO)c1cccc(F)c1 [3-fluoro-N-hydroxybenzamide]
IC50 (HDAC1): 29.4 µM
IC50 (HDAC6): 0.453 µM
SI (IC50 (HDAC1)/IC50 (HDAC6)) (HDAC6): 65

Structure (SMILES): CN(C)c1ccc(C(=O)N(CC(=O)NCc2ccccc2)Cc2ccc(C(=O)NO)cc2F)cc1 [Compound 10h, 4-({N-[(Benzylcarbamoyl)methyl]-1-[4-(dimethylamino)phenyl]formamido}methyl)-3-fluoro-N-hydroxybenzamide]
ZIP synergy score (HL60): 25.08
ZIP synergy score (MOLM13): 27.44
ZIP synergy score (HAL01): 1.18
ZIP synergy score (Jurkat): −0.87
induction of apoptosis (HL60 cells [2]): significant (p < 0.0001) increase in apoptotic cells
acetylation of histone 3 (Ac-H3) (HL60 cells [1]): dose-dependent increase
acetylation of α-tubulin (HL60 cells [1]): dose-dependent increase
acetylation of H3 on co-administration with decitabine (HL60 cells [1]; combination with decitabine vs mono-treatment): strong induction of acetylation of H3 as compared to mono-treatment
cellular viability of leukemia cell lines (leukemia cell lines): markedly outperformed CI994 and ricolinostat

Structure (SMILES): CC(C)c1ccccc1C(=O)N(CC(=O)NC(C)(C)C)Cc1ccc(C(=O)NO)cc1F [Compound 10p, 4-({N-[(tert-Butylcarbamoyl)methyl]-1-[2-(propan-2-yl)phenyl]formamido}methyl)-3-fluoro-N-hydroxybenzamide]
ZIP synergy score (HL60): 7.78
ZIP synergy score (MOLM13): 7.18
induction of apoptosis (HL60 cells [2]): weaker (in comparison to 10h) although significant (p < 0.05) apoptosis induction
acetylation of histone 3 (Ac-H3) (HL60 cells [1]): no effect on Ac-H3 levels
acetylation of α-tubulin (HL60 cells [1]): induced acetylation of α-tubulin
cellular viability of leukemia cell lines (leukemia cell lines): IC50 values ranging in the high micromolar concentration
